In US20230414634A1, “METHODS FOR TREATING CHOLESTATIC PRURITUS” (GlaxoSmithKline Intellectual Property (No.2) Limited, priority 2020, published 2023):

Test system: patients with PBC and cholestatic pruritus
Assay: GLIMMER Phase 2b study: safety and tolerability (adverse events, Safety population)
Type: in vivo, human
Excerpt: Secondary and exploratory endpoints: itch efficacy, quality of life (PBC-40) and pharmacodynamic biomarkers, and safety and tolerability.
In the GLIMMER trial, once daily dosing (QD) was expected to be the optimum dosing regimen. The rationale for QD was as follows: i) it was considered optimal to administer one dose in the morning alone, avoiding administering a dose at night in order to minimise the known side effect of diarrhoea during the night, and ii) one dose per day is generally expected to result in a better patient compliance. The tablet sizes employed in the trial were 10 mg and 45 mg which allowed administration of different dose sizes by combining tablets.
As illustrated in FIG. 1(i), the initial dose sizes were: placebo, 20 mg QD, 90 mg QD and 180 mg QD. Also included was a dose size of 90 mg BID which was evaluated in the earlier Phase 2a study. […] This warranted a further investigation of twice daily dosing. It was decided to add a new 40 mg BID group, and to cease the 20 mg QD dose.

**Q.** For CCCC[C@]1(CC)CS(=O)(=O)c2cc(CNC(CC(=O)O)CC(=O)O)c(OC)cc2[C@@H](c2ccccc2)N1 [linerixibat], which “Abdominal distension: number of patients” value (20 mg QD (N = 14)) is on record?
**A.** The value was 0.

**Q.** And the “Abdominal pain lower: % of patients” value (20 mg QD (N = 14))?
**A.** The value was “(7%)”.

**Q.** And the “Abdominal pain lower: number of patients” value (20 mg QD (N = 14))?
**A.** The value was 1.

**Q.** What about the “Abdominal pain upper: % of patients” value (20 mg QD (N = 14)) of the same compound?
**A.** The value was “(14%)”.

**Q.** And the “Abdominal pain upper: number of patients” value (20 mg QD (N = 14))?
**A.** Its value is 2.

**Q.** What about the “Abdominal pain: % of patients” value (20 mg QD (N = 14)) of the same compound?
**A.** Its value is “(14%)”.

**Q.** What about the “Abdominal pain: number of patients” value (20 mg QD (N = 14)) of the same compound?
**A.** The value was 2.

**Q.** What about the “Adverse events Main Study, ANY EVENT: % of patients” value (20 mg QD (N = 14)) of the same compound?
**A.** Its value is “(57%)”.

**Q.** And the “Adverse events Main Study, ANY EVENT: number of patients” value (20 mg QD (N = 14))?
**A.** The value was 8.

**Q.** And the “Diarrhoea: % of patients” value (20 mg QD (N = 14))?
**A.** Its value is “(36%)”.

**Q.** And the “Diarrhoea: number of patients” value (20 mg QD (N = 14))?
**A.** Its value is 5.

**Q.** What about the “Dry mouth: % of patients” value (20 mg QD (N = 14)) of the same compound?
**A.** The value was “(14%)”.

**Q.** And the “Dry mouth: number of patients” value (20 mg QD (N = 14))?
**A.** Its value is 2.

**Q.** And the “Flatulence: % of patients” value (20 mg QD (N = 14))?
**A.** Its value is “(7%)”.

**Q.** What about the “Flatulence: number of patients” value (20 mg QD (N = 14)) of the same compound?
**A.** Its value is 1.

**Q.** And the “Gastrointestinal disorders, Any event: % of patients” value (20 mg QD (N = 14))?
**A.** Its value is “(50%)”.

**Q.** And the “Gastrointestinal disorders, Any event: number of patients” value (20 mg QD (N = 14))?
**A.** The value was 7.

**Q.** What about the “Gastrooesophageal reflux disease: % of patients” value (20 mg QD (N = 14)) of the same compound?
**A.** Its value is “(7%)”.

**Q.** What about the “Gastrooesophageal reflux disease: number of patients” value (20 mg QD (N = 14)) of the same compound?
**A.** Its value is 1.

**Q.** What about the “Nausea: % of patients” value (20 mg QD (N = 14)) of the same compound?
**A.** Its value is “(7%)”.

**Q.** And the “Nausea: number of patients” value (20 mg QD (N = 14))?
**A.** The value was 1.

**Q.** What about the “Vomiting: % of patients” value (20 mg QD (N = 14)) of the same compound?
**A.** Its value is “(7%)”.

**Q.** What about the “Vomiting: number of patients” value (20 mg QD (N = 14)) of the same compound?
**A.** Its value is 1.

**Q.** What about the gastrointestinal tolerability data (40 mg BID versus higher doses) of the same compound?
**A.** The gastrointestinal tolerability data was “favored 40 mg BID dosing over higher doses”.

**Q.** And the “Abdominal distension: number of patients” value (90 mg BID (N = 13))?
**A.** Its value is 0.

**Q.** And the “Abdominal pain upper: number of patients” value (90 mg BID (N = 13))?
**A.** Its value is 0.

**Q.** What about the “Abdominal pain: number of patients” value (90 mg BID (N = 13)) of the same compound?
**A.** The value was 1.

**Q.** What about the “Adverse events Main Study, ANY EVENT: % of patients” value (90 mg BID (N = 13)) of the same compound?
**A.** Its value is “(69%)”.

**Q.** And the “Adverse events Main Study, ANY EVENT: number of patients” value (90 mg BID (N = 13))?
**A.** The value was 9.

**Q.** And the “Diarrhoea: number of patients” value (90 mg BID (N = 13))?
**A.** Its value is 5.

**Q.** And the “Dry mouth: number of patients” value (90 mg BID (N = 13))?
**A.** Its value is 0.

**Q.** What about the “Flatulence: number of patients” value (90 mg BID (N = 13)) of the same compound?
**A.** The value was 0.

**Q.** What about the “Gastrointestinal disorders, Any event: number of patients” value (90 mg BID (N = 13)) of the same compound?
**A.** Its value is 5.

**Q.** What about the “Gastrooesophageal reflux disease: number of patients” value (90 mg BID (N = 13)) of the same compound?
**A.** Its value is 0.

**Q.** And the “Nausea: % of patients” value (90 mg BID (N = 13))?
**A.** The value was “(15%)”.

**Q.** What about the “Nausea: number of patients” value (90 mg BID (N = 13)) of the same compound?
**A.** Its value is 2.

**Q.** And the “Vomiting: % of patients” value (90 mg BID (N = 13))?
**A.** The value was “(8%)”.

**Q.** And the “Vomiting: number of patients” value (90 mg BID (N = 13))?
**A.** Its value is 1.

**Q.** And the “tolerability at interim analysis” value (90 mg BID versus 180 mg QD)?
**A.** Its value is “better tolerated than 180 mg QD”.

**Q.** What about the “Abdominal distension: % of patients” value (90 mg QD (N = 12)) of the same compound?
**A.** The value was “(8%)”.

**Q.** And the “Abdominal distension: number of patients” value (90 mg QD (N = 12))?
**A.** Its value is 1.

**Q.** And the “Abdominal pain lower: % of patients” value (90 mg QD (N = 12))?
**A.** Its value is “(8%)”.

**Q.** And the “Abdominal pain lower: number of patients” value (90 mg QD (N = 12))?
**A.** The value was 1.

**Q.** And the “Abdominal pain: % of patients” value (90 mg QD (N = 12))?
**A.** The value was “(8%)”.

**Q.** And the “Abdominal pain: number of patients” value (90 mg QD (N = 12))?
**A.** The value was 1.

**Q.** What about the “Adverse events Main Study, ANY EVENT: % of patients” value (90 mg QD (N = 12)) of the same compound?
**A.** Its value is “(75%)”.

**Q.** What about the “Adverse events Main Study, ANY EVENT: number of patients” value (90 mg QD (N = 12)) of the same compound?
**A.** Its value is 9.

**Q.** And the “Diarrhoea: % of patients” value (90 mg QD (N = 12))?
**A.** Its value is “(50%)”.

**Q.** And the “Diarrhoea: number of patients” value (90 mg QD (N = 12))?
**A.** The value was 6.

**Q.** What about the “Dry mouth: % of patients” value (90 mg QD (N = 12)) of the same compound?
**A.** Its value is “(8%)”.

**Q.** What about the “Dry mouth: number of patients” value (90 mg QD (N = 12)) of the same compound?
**A.** The value was 1.

**Q.** What about the “Flatulence: number of patients” value (90 mg QD (N = 12)) of the same compound?
**A.** Its value is 0.

**Q.** What about the “Gastrointestinal disorders, Any event: % of patients” value (90 mg QD (N = 12)) of the same compound?
**A.** Its value is “(50%)”.

**Q.** What about the “Gastrointestinal disorders, Any event: number of patients” value (90 mg QD (N = 12)) of the same compound?
**A.** The value was 6.

**Q.** And the “Gastrooesophageal reflux disease: number of patients” value (90 mg QD (N = 12))?
**A.** Its value is 0.

**Q.** What about the “Nausea: number of patients” value (90 mg QD (N = 12)) of the same compound?
**A.** The value was 0.

**Q.** What about the “Vomiting: number of patients” value (90 mg QD (N = 12)) of the same compound?
**A.** The value was 0.

**Q.** And the “Abdominal distension: % of patients” value (180 mg QD (N = 17))?
**A.** The value was “(6%)”.

**Q.** And the “Abdominal pain lower: number of patients” value (180 mg QD (N = 17))?
**A.** Its value is 0.

**Q.** And the “Abdominal pain upper: % of patients” value (180 mg QD (N = 17))?
**A.** Its value is “(6%)”.

**Q.** What about the “Abdominal pain: number of patients” value (180 mg QD (N = 17)) of the same compound?
**A.** Its value is 5.

**Q.** What about the “Adverse events Main Study, ANY EVENT: % of patients” value (180 mg QD (N = 17)) of the same compound?
**A.** Its value is “(82%)”.

**Q.** What about the “Adverse events Main Study, ANY EVENT: number of patients” value (180 mg QD (N = 17)) of the same compound?
**A.** The value was 14.

**Q.** And the “Diarrhoea: number of patients” value (180 mg QD (N = 17))?
**A.** Its value is 10.

**Q.** And the “Dry mouth: number of patients” value (180 mg QD (N = 17))?
**A.** Its value is 0.

**Q.** What about the “Flatulence: % of patients” value (180 mg QD (N = 17)) of the same compound?
**A.** Its value is “(6%)”.

**Q.** What about the “Gastrointestinal disorders, Any event: number of patients” value (180 mg QD (N = 17)) of the same compound?
**A.** The value was 14.

**Q.** What about the “Gastrooesophageal reflux disease: number of patients” value (180 mg QD (N = 17)) of the same compound?
**A.** Its value is 0.

**Q.** And the “Nausea: % of patients” value (180 mg QD (N = 17))?
**A.** The value was “(6%)”.

**Q.** And the “Nausea: number of patients” value (180 mg QD (N = 17))?
**A.** The value was 1.

**Q.** What about the “Vomiting: % of patients” value (180 mg QD (N = 17)) of the same compound?
**A.** The value was “(12%)”.

**Q.** What about the “Vomiting: number of patients” value (180 mg QD (N = 17)) of the same compound?
**A.** Its value is 2.

**Q.** What about the “most common AE” value (in vivo) of the same compound?
**A.** Its value is “diarrhea”.
